Experiments:
[1] = tested on: doxorubicin-induced senescent cells in p16-3MR mice; test: Nutlin-3a treatment of p16-3MR transgenic mice with doxorubicin-induced senescence; assay type: in vivo, mouse; conditions: for cells with DNA damage (γH2AX positive) in lung sections: day 35, versus doxorubicin alone
Description: The capability of Nutlin-3a to remove senescent cells in vivo was determined in transgenic p16-3MR mice (see, e.g., International Application Publication No. WO2013/090645). The transgenic mouse comprises a p16^Ink4a promoter operatively linked to a trimodal fusion protein for detecting senescent cells and for selective clearance of senescent cells in these transgenic mice, which is illustrated in FIG. 7. The promoter, p16^Ink4a, which is transcriptionally active in senescent cells but not in non-senescent cells (see, e.g., Wang et al., J. Biol. Chem. 276:48655-61 (2001); Baker et al., Nature 479:232-36 (2011)) was engineered into a nucleic acid construct. 3MR (tri-modality reporter) is a fusion protein containing functional domains of a synthetic Renilla luciferase (LUC), monomeric red fluorescence protein (mRFP), and truncated herpes simplex virus (HSV)-1 thymidine kinase (tTK), which allows killing by ganciclovir (GCV) (see, e.g., Ray et al., Cancer Res. 64:1323-30 (2004))). The 3MR cDNA was inserted in frame with p16 in exon 2, creating a fusion protein containing the first 62 amino acids of p16, but not a full-length wild-type p16 protein. […] The p16^Ink4a gene promoter (approximately […]) was introduced upstream of a nucleotide sequence encoding a trimodal reporter fusion protein. Alternatively, a truncated p16^Ink4a promoter may be used (see, e.g., Baker et al., Nature, supra; International Application Publication No. WO2012/177927; Wang et al., supra).). Thus, the expression of 3MR is driven by the p16^Ink4a promoter in senescent cells only. The detectable markers, LUC and mRFP permitted detection of senescent cells by bioluminescence and fluorescence, respectively. The expression of tTK permitted selective killing of senescent cells by exposure to the pro-drug ganciclovir (GCV), which is converted to a cytotoxic moiety by tTK. Transgenic founder animals, which have a C57B16 background, were established and bred using known procedures for introducing transgenes into animals (see, e.g., Baker et al., Nature 479:232-36 (2011)). Female C57/BL6 p16-3MR mice were randomized into doxorubicin+Nutlin-3a treated or doxorubicin only treated groups (see FIG. 6). Senescence was induced by intraperitoneal administration of doxorubicin at 10 mg/kg to the mice ten days prior to administration of Nutlin-3a (Day −10). Nutlin-3a (25 mg/kg) was administered intraperitoneally daily from day 10 to day 24 post-doxorubicin treatment (Group=9 mice). Control mice (doxorubicin treated) were injected with equal volumes of PBS (Group=3 mice). Luminescence imaging (Xenogen Imaging system) was performed at Day 0 (i.e., 10 days post-doxorubicin treatment) as a baseline for each mouse (100% intensity).
Luminescence imaging of the mice was performed on day 7, 14, 21, 28, and 35 following the initiation of Nutlin-3a treatment. Reduction of luminescence (L) was calculated as: L=(Imaging post-Nutlin-3a treatment)/(Baseline Imaging) %. If L is greater than or equal to 100%, the number of senescent cells was not reduced. If L is less than 100%, then the number of senescent cells was reduced. Every mouse was calculated independently, and background was subtracted from each sample.
Experiments were performed to determine the effect of Nutlin-3a treatment on expression of genes associated with senescence. Groups of female C57/BL6 p16-3MR were treated as described above. Three weeks after the end of Nutlin-3a treatment (day 35), the doxorubicin treated mice (control) (N=3) and doxorubicin+Nutlin-3a-treated mice (N=6) were sacrificed. Skin and fat biopsies were collected for RNA extraction; fat biopsies were collected for detection of senescence-associated β-galactosidase; and lungs were flash frozen in cryoprotectant OCT media for cryostat sectioning. […]

[2] = tested on: pATM, γH2AX, IkBa, MDM2, p53, p21 in senescent IMR90 cells; test: Immunoblot of DNA damage response proteins in irradiated senescent IMR90 cells treated with Nutlin-3a; assay type: cell-based, human
Description: Primary human fibroblast (IMR90) cells were induced to senesce by applying 10 Gy of irradiation. Seven days after irradiation (Day 0), cells were treated with 10 μM Nutlin-3a or vehicle (DMSO) for nine days (Day 9). The drug or vehicle was refreshed every three days. Drug/vehicle was removed at Day 9 and the cells were cultured for an additional six days in media without drug or DMSO, changing media every three days. Cells were collected at Day 0 (non-senescent cells), Day 9, Day 12, and Day 15, and protein extracted and processed for immunoblotting (Western blotting). Two samples were processed at each time point; the results are provided for one sample in FIG. 14.

[3] = tested on: LDLR−/−/3MR double transgenic mice fed a HFD; test: Atherosclerosis model, LDLR-/-/3MR double transgenic mice on HFD, ganciclovir weeks 12-13 and 14-15; assay type: in vivo, mouse; conditions: 25 mg/kg ip; versus LDLR−/−/HFD controls
Description: The study illustrated in FIG. 43B assessed the extent to which […] based clearance of senescent cells from LDLR^−/− /3MR double transgenic mice improves pre-existing atherogenic disease. LDLR^−/− MR double transgenic mice (10 weeks) and LDLR^−/− single transgenic mice (10 weeks) are fed a high fat diet beginning at Week 0 until Week 12. Gancyclovir is administered to both groups of mice (25 mg/kg intraperitoneally) from weeks 12-13 and weeks 14-15. At week 16, the level of plaque and the number of senescent cells in the plaques are determined.

[4] = tested on: p16-3MR mice fed a high fat diet; test: High fat feeding-induced senescence in p16-3MR mice, SA-β-Gal staining of adipose tissue; assay type: in vivo, mouse; conditions: 25 mg/kg daily for five consecutive days; p=<0.004
Description: Groups of p16-3MR mice (n=6) were fed a high fat diet (60% fat) for four months mice or a regular chow diet. The presence of senescence cells was determined by measuring luminescence (i.e., p16 positive cells). […] Animals were then treated with ganciclovir or vehicle to determine if removal of senescent cells reduced the presence of senescent cells in adipose tissue. Groups of animals were treated with ganciclovir or vehicle. Ganciclovir (25 mg/kg) was administered daily for five consecutive days. The presence of senescent cells in perirenal, epididymal, or subcutaneous inguinal adipose tissue was detected by SA-β-Gal staining. Data were analyzed by ANOVA.

With COc1ccc(C2=N[C@@H](c3ccc(Cl)cc3)[C@@H](c3ccc(Cl)cc3)N2C(=O)N2CCNC(=O)C2)c(OC(C)C)c1 [Nutlin-3a] the “luminescence associated with doxorubicin-induced senescence” value ([1]; 25 mg/kg intraperitoneally daily, day 10 to 24 post-doxorubicin) was “reduced luminescence”, the “luminescence, statistical significance at time points” value ([1]; day 14, day 28 and day 35 after start of treatment) was “statistically significant decrease” and the “mRNA of SASP factors (mmp-3, IL-6) and senescence markers (p21, p16, p53) in skin and fat” value ([1]; day 35, relative to actin mRNA) was “reduced expression”. For the same compound, the “cells with DNA damage (γH2AX positive) in lung sections” value [1] was “reduced the number of cells with doxorubicin-induced DNA damage”, the “cells with DNA damage (γH2AX positive) in lung sections” value ([1]; listed as nutlin-3A) was “reduced the number of cells with DNA damage” and the “senescence-associated β-gal intensity in fat biopsies” value ([1]; three weeks after treatment, versus doxorubicin alone) was “reduced senescence-associated (SA) β-galactosidase (β-gal) intensity”. The “phosphorylation of the kinase ATM (pATM S1981)” value ([2]; 10 μM, also after drug removal) was “lower”, the “level of IkBa” value ([2]; after drug is removed) was “approaches the level of IkBa in non-senescent cells” and the “phosphorylation of H2AX (γH2AX)” value ([2]; after treatment and after drug removal) was “declining levels of phosphorylation”. For the same compound, the “levels of MDM2, p53 and p21 protein” value ([2]; drug present, decreased when drug removed) was “elevated”.
For Nc1nc(O)c2ncn(COC(CO)CO)c2n1 [ganciclovir], the “% of the aorta covered with plaque” value [3] was “reduces the % of the aorta covered with plaque”, the plaque cross-sectional area [3] was “reduced the plaque cross-sectional area” and the “presence of senescent cells in epididymal fat (SA-β-Gal)” value [4] was “significant reduction”.
